Results on three compounds are retold here after US8765907B2, “Production and use of antitumoral antibiotic and insecticidal cyclodepsipeptides” (Geomar Helmholtz-Zentrum fur Ozeanforschung Kiel, priority 2009, dated 2014).

Assay [1] concerns GXF251L (gastric tumour cell line). In words: Anti-proliferative effect (propidium iodide fluorescence assay), GXF251L. The assay is classed as cell-based, human. On the procedure:
(§1) Xenobovide A, B and C inhibited the proliferation of all six tested human tumour cell lines: GXF251L (gastric tumour cell line), LXF529L (lung tumour cell line), MAXF401NL (breast cancer cell line), MEXF462NL (melanoma cell line), PAXF1657L (pancreas tumour cell line) and RXF486L (kidney tumour cell line).
(§2) The anti-proliferative effect was determined according to Dengler et al. (1995, Development of a propidium iodide fluorescence assay for proliferation and cytoxicity assay. Anti-Cancer Drugs 6:522-532).

In assay [2] the test system is LXF529L (lung tumour cell line). Put plainly: Anti-proliferative effect (propidium iodide fluorescence assay), LXF529L. The assay is classed as cell-based, human. The method, then:
as §1, §2

The subject of assay [3] is MAXF401NL (breast cancer cell line). Put plainly: Anti-proliferative effect (propidium iodide fluorescence assay), MAXF401NL. The assay is classed as cell-based, human. On the procedure:
as §1, §2

Assay [4] relates to MEXF462NL (melanoma cell line). In words: Anti-proliferative effect (propidium iodide fluorescence assay), MEXF462NL. The assay is classed as cell-based, human. The method, then:
as §1, §2

Assay [5] concerns PAXF1657L (pancreas tumour cell line). Put plainly: Anti-proliferative effect (propidium iodide fluorescence assay), PAXF1657L. The assay is classed as cell-based, human. On the procedure: as §1, §2
Assay [6] has as its system RXF486L (kidney tumour cell line). In words: Anti-proliferative effect (propidium iodide fluorescence assay), RXF486L. The assay is classed as cell-based, human. On the procedure: as §1, §2
The next assay deals with acetylcholine esterase. The settings on record: read-out: IC50-value, acetylcholine esterase. The method, then:
Testing was performed according to Birman (1985, Determination of acetylcholinesterase activity by a new chemiluminescence assay with natural substrate. Biochemical Journal. 225:825-828).

Assay [7] has as its target phosphodiesterase (PDE-4B2) (Homo sapiens, UniProt Q07343). Put plainly: Inhibition of phosphodiesterase PDE-4B2. The settings on record: 163 μg/mL. The assay is classed as biochemical. On the procedure: Xenobovide A in a concentration of 163 μg/mL inhibits the phosphodiesterase (PDE-4B2) by 46%. This enzyme test was carried out according to Hohmann et al. (2009, Caboxamycin, a new antibiotic of the benzoxazole family produced by the deep-sea strain Streptomyces sp. NTK 937. The Journal of Antibiotics. 62:99-104).

In assay [8] the target is T1, Protein Tyrosine Phosphatase 1B (PTP1B) (Homo sapiens, UniProt P18031).
T1 sequence (P18031 1-435): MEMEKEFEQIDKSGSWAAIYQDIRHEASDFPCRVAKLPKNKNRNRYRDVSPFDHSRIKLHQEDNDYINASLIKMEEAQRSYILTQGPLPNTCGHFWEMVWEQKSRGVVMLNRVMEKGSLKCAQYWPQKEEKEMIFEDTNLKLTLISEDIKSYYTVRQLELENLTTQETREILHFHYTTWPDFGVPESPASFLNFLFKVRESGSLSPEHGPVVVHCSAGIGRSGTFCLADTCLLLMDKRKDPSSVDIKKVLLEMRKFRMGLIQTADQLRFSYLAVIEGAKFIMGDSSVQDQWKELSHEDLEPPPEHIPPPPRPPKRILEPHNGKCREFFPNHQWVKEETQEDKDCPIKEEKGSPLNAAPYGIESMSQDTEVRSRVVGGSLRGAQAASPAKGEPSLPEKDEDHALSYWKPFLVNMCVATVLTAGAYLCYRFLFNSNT
Put plainly: Inhibition of protein tyrosine phosphatase 1B. The settings on record: 26.1 μMol. The assay is classed as biochemical. The method, then:
Xenobovide A in a concentration of 26.1 μMol inhibits the protein tyrosine phosphotase 1B (PTB1B) by 59%. This enzyme test was carried out according to Hohmann et al. (2009, Caboxamycin, a new antibiotic of the benzoxazole family produced by the deep-sea strain Streptomyces sp. NTK 937. The Journal of Antibiotics. 62:99-104).

Assay [9] concerns the target glycogen synthase kinase 3beta (Homo sapiens, UniProt P49841). In words: Inhibition of glycogen synthase kinase 3beta (Kinase-Glo luminescent assay). The assay is classed as biochemical. From the text: Xenobovide A and B, in a concentration of 16.3 μMol and 15.6 μMol, respectively, inhibited the glycogen synthase kinase 3beta by 21% and 43%, respectively. The performance was according to Baki et al. (2007, A high throughput luminescent assay for glycogen synthase kinase-3beta inhibitors. Assay and Drug Development Technologies. 5:75-83) using the kinase-Glo Luminescent Kinase Assay Kit of the company Promega.

In another assay the test system is larvae of the wax moth. In words: Insecticidal effect, oral toxicity in feed. The assay is classed as in vivo. The settings on record: added to feed, 1 mg substance/mL solution, five larvae per box, 35° C., six days, four repeated experiments. The method, then:
The insecticidal effect was tested against the larvae of the wax moth, a pathogen in beekeeping. […] To test the oral toxicity, 1 mg substance/mL was dissolved in a 50% aqueous ethanol solution. Five larvae each were transferred into a plastic box (2 cm in diameter) and fed with 1 g food mixture (0.8 mL substance solution, 0.2 mL glycerine (86%) and 1 g wheat bran). The control group was fed with 1 g food mixture without addition of substance (0.4 mL aq. dest., 0.4 mL ethanol, 0.2 mL glycerine (86%) and 1 g wheat bran). The incubation of the larvae was at 35° C. for six days. Subsequently, the dead larvae were counted.

Sequence of glycogen synthase kinase 3beta (P49841 whole entry, species assumed): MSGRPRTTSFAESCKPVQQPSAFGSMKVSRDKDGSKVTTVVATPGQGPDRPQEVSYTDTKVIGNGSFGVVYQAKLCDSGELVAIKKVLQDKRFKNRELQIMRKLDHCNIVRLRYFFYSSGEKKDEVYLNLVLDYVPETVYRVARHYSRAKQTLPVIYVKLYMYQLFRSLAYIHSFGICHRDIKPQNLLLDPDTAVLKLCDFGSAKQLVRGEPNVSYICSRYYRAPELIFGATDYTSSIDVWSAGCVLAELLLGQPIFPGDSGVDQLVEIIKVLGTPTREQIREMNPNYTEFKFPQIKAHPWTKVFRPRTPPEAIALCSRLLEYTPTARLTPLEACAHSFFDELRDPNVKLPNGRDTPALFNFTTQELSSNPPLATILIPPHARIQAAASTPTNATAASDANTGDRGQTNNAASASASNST
Sequence of phosphodiesterase (PDE-4B2) (Q07343 1-564 isoform Q07343-2, species assumed): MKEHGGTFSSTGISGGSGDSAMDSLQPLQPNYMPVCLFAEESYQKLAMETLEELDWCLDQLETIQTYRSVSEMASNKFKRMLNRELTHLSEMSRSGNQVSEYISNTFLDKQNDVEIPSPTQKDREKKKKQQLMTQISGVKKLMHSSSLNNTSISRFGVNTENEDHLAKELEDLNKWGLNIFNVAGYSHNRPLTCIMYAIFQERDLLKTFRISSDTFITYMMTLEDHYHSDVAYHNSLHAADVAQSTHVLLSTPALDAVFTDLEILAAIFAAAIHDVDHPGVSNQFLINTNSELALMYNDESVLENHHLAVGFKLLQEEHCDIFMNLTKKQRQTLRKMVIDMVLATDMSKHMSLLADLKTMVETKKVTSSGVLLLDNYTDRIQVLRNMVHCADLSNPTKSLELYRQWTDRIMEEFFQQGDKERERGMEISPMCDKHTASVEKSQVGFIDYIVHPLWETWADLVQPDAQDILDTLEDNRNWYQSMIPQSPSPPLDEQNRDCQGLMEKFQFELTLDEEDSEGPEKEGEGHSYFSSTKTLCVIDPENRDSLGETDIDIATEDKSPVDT

For the compound `CCCCC(C)CC(=O)N[C@@H]1C(=O)N[C@@H](C)C(=O)NC(CC(C)C)C(=O)NC(CC(C)C)C(=O)NC(CC(C)C)C(=O)NC(CC(C)C)C(=O)N[C@@H](C)C(=O)O[C@@H]1C` (single isomer, unassigned) [Xenobovide A], the IC50 in [1] turned out to be 1.6 µM; in assay [2] it was 8.5 µM; in assay [3] it was 2.1 µM; in assay [4] it was 2.7 µM; in assay [5] it was 3.5 µM; in assay [6], 12 µM. In addition, on acetylcholine esterase, the IC50 was found to be 53.6 µM. Moreover, testing at 163 µg/mL in [7] gave an inhibition of 46%. In assay [8], the “inhibition of protein tyrosine phosphatase 1B” value stood at 59%. Besides, in [9] (16.3 μMol), the “inhibition of glycogen synthase kinase 3beta” value was 21%. Further, the “insecticidal effect (dead larvae)” value in the assay on larvae of the wax moth is given as “death of all larvae”.
`CCCCC(C)CC(=O)N[C@@H]1C(=O)N[C@@H](C)C(=O)NC(CC(C)C)C(=O)NC(CC(C)C)C(=O)NC(CC(C)C)C(=O)NC(CC(C)C)C(=O)N[C@@H](C)C(=O)O[C@@H]1C` (single isomer, unassigned) [Xenobovide C]: the IC50 in assay [1] stood at 3 µM; in assay [2], 7.8 µM; in assay [3], 8.5 µM; in assay [4], 9.4 µM; in [5], 10.3 µM; in assay [6] it was 7.6 µM. Besides, the “insecticidal effect (dead larvae)” value with larvae of the wax moth was “death of all larvae”.
For `CCCCC(C)CC(=O)N[C@@H]1C(=O)N[C@@H](C)C(=O)NC(CC(C)C)C(=O)NC(CC(C)C)C(=O)NC(CC(C)C)C(=O)NC(CC(C)C)C(=O)N[C@@H](C)C(=O)O[C@@H]1C` (single isomer, unassigned) [Xenobovide B], the IC50 came out at 2.5 µM in [1]; 9.7 µM in assay [2]; 3.2 µM in assay [3]; 5.3 µM in assay [4]; 2.9 µM in assay [5]; 14.5 µM in assay [6]. Besides, the “inhibition of glycogen synthase kinase 3beta” value in assay [9] (15.6 μMol) stood at 43%. In addition, the “insecticidal effect (dead larvae)” value in the assay with larvae of the wax moth is “death of all larvae”.

Usually IC50 stands for the concentration that gives 50% inhibition. Usually inhibition stands for the percentage by which the read-out fell short of the control.
